Data from article PMC11097168, “Laburnicotides A–F: Acyclic N-Acetyl Oligopeptides from the Nematode-Cyst-Associated Fungus Laburnicola nematophila” (ACS Omega, 2024).
Values after ≈ are worked out from the molar mass of the structure shown. Where two headings read alike, the source gives them in different places.

How the values were obtained:
[1] = test system: Acinetobacter baumanii; assay: Antimicrobial activity (MIC), serial dilution; type: cell-based
Description: (§1) The evaluation of antimicrobial efficacy was conducted through a serial dilution method to determine the minimum inhibitory concentrations (MICs) of isolated compounds against various Gram-positive bacteria (Bacillus subtilis (B. subtilis), Mycobacterium smegmatis (M. smegmatis), and Staphylococcus aureus), Gram-negative bacteria (Acinetobacter baumannii (A. baumannii), Chromobacterium violaceum, Escherichia coli, and Pseudomonas aeruginosa (P. aeruginosa)), and five fungal species (Candida albicans, Mucor hiemalis, Rhodotorula glutinis, Schizosaccharomyces pombe, and Wickerhamomyces anomalus), utilizing established methodologies.[16],[20],[23],[24] Methanol served as the negative control with a volume of 20 μL, while the choice of positive controls was tailored to the specific organism under investigation. For bacterial strains, oxytetracycline, ciprofloxacin, kanamycin, and gentamicin were employed as references for B. subtilis, A. baumannii, M. smegmatis, and P. aeruginosa, respectively; nystatin was the standard for all fungi. The cytotoxicity of compounds was assessed on L929 mouse fibroblast cells and KB3.1 human endocervical adenocarcinoma cells using an MTT assay. Epothilone B acted as the positive control in these experiments. Additionally, the nematicidal potential was evaluated using Caenorhabditis elegans in a 48-well flat-bottom plate, with compounds tested at concentrations of 100, 50, and 10 μg mL^–1. Samples were dissolved in methanol and added to the wells and then dried using a nitrogen stream. Subsequently, 300 μL of a suspension containing 1,000 nematodes/mL was added to the samples and incubated for 18 h at 23 °C and 150 rpm. Ivermectin, at a concentration of 1 μg mL^–1, served as the positive control, and methanol was used as the negative control. This assay was executed according to the procedures outlined by Phutthacharoen et al.[23]

[2] = test system: Caenorhabditis elegans; assay: Nematicidal activity; type: in vivo; details: 23 °C, 150 rpm
Description: as §1

[3] = test system: L929 mouse fibroblast cells; assay: Cytotoxicity, MTT assay; type: cell-based; set-up: key: -: No effect on cell lines
Description: as §1

[4] = test system: KB3.1 human endocervical adenocarcinoma cells; assay: Cytotoxicity, MTT assay; type: cell-based; set-up: key: -: No effect on cell lines; details: Human endocervical adenocarcinoma (KB3.1)
Description: as §1

[5] = test system: Bacillus subtilis; assay: Antimicrobial activity (MIC), serial dilution; type: cell-based
Description: as §1

[6] = test system: Mycobacterium smegmatis; assay: Antimicrobial activity (MIC), serial dilution; type: cell-based
Description: as §1, with “The biological activity of isolated compounds (1, 2, 4, and 5) was assessed against different fungi, bacteria, cell lines, Caenorhabditis elegans, and Chikungunya virus. The evaluation” for “The evaluation”

[7] = test system: Pichia anomala; assay: Antimicrobial activity (MIC), serial dilution; type: cell-based
Description: as §1, with “The biological activity of isolated compounds (1, 2, 4, and 5) was assessed against different fungi, bacteria, cell lines, Caenorhabditis elegans, and Chikungunya virus. The evaluation” for “The evaluation”

[8] = test system: Schizosaccharomyces pombe; assay: Antimicrobial activity (MIC), serial dilution; type: cell-based
Description: as §1, with “The biological activity of isolated compounds (1, 2, 4, and 5) was assessed against different fungi, bacteria, cell lines, Caenorhabditis elegans, and Chikungunya virus. The evaluation” for “The evaluation”

[9] = test system: Pseudomonas aeruginosa; assay: Antimicrobial activity (MIC), serial dilution; type: cell-based
Description: as §1, with “The biological activity of isolated compounds (1, 2, 4, and 5) was assessed against different fungi, bacteria, cell lines, Caenorhabditis elegans, and Chikungunya virus. The evaluation” for “The evaluation”

[10] = test system: Rhodotorula glutinis; assay: Antimicrobial activity (MIC), serial dilution; type: cell-based
Description: as §1, with “The biological activity of isolated compounds (1, 2, 4, and 5) was assessed against different fungi, bacteria, cell lines, Caenorhabditis elegans, and Chikungunya virus. The evaluation” for “The evaluation”

[11] = test system: Staphylococcus aureus; assay: Antimicrobial activity (MIC), serial dilution; type: cell-based
Description: as §1, with “The biological activity of isolated compounds (1, 2, 4, and 5) was assessed against different fungi, bacteria, cell lines, Caenorhabditis elegans, and Chikungunya virus. The evaluation” for “The evaluation”

[12] = test system: Escherichia coli; assay: Antimicrobial activity (MIC), serial dilution; type: cell-based
Description: as §1, with “The biological activity of isolated compounds (1, 2, 4, and 5) was assessed against different fungi, bacteria, cell lines, Caenorhabditis elegans, and Chikungunya virus. The evaluation” for “The evaluation”

[13] = test system: Candida albicans; assay: Antimicrobial activity (MIC), serial dilution; type: cell-based
Description: as §1, with “The biological activity of isolated compounds (1, 2, 4, and 5) was assessed against different fungi, bacteria, cell lines, Caenorhabditis elegans, and Chikungunya virus. The evaluation” for “The evaluation”

[14] = test system: Mucor hiemails; assay: Antimicrobial activity (MIC), serial dilution; type: cell-based
Description: as §1, with “The biological activity of isolated compounds (1, 2, 4, and 5) was assessed against different fungi, bacteria, cell lines, Caenorhabditis elegans, and Chikungunya virus. The evaluation” for “The evaluation”

[15] = test system: Chromobacterium violaceum; assay: Antimicrobial activity (MIC), serial dilution; type: cell-based
Description: as §1, with “The biological activity of isolated compounds (1, 2, 4, and 5) was assessed against different fungi, bacteria, cell lines, Caenorhabditis elegans, and Chikungunya virus. The evaluation” for “The evaluation”

[16] = C. elegans N2, 10 µg mL-1, 18 h, < 0: less active than the corresponding negative control
[17] = C. elegans N2, 50 µg mL-1, 18 h, < 0: less active than the corresponding negative control
[18] = C. elegans N2, 100 µg mL-1, 18 h, < 0: less active than the corresponding negative control
[19] = read-out: MIC, positive control

Compound | Cytotoxicity IC50 [3] | Cytotoxicity IC50 [4] | Corrected Mortality (%) [2, 16] [%] | Corrected Mortality (%) [2, 17] [%] | Corrected Mortality (%) [2, 18] [%] | MIC [5] | MIC [1] | MIC [6] | MIC [7] | MIC [8] | MIC [9] | MIC [10] | MIC [11] | MIC [12] | MIC [13] | MIC [14] | MIC [15] | other results
O=C(O)c1cn(C2CC2)c2cc(N3CCNCC3)c(F)cc2c1=O [Ciprofloxacin, reference compound] |  |  |  |  |  |  |  |  |  |  |  |  |  |  |  |  |  | MIC ([1]; Acinetobacter baumannii, read-out: MIC, positive control): 0.52 µg/mL (≈ 1.57 µM)
Ivermectin [reference compound] |  |  |  |  |  |  |  |  |  |  |  |  |  |  |  |  |  | Corrected Mortality (%) ([2]; C. elegans N2, 1 µg mL-1, 18 h): 96.2 ± 2.7%
Ac-D-Trp-D-Leu^1-D-Leu^2-L-Phe [Compound 1] | - | - | < 0 | < 0 | < 0 | - (No inhibition up to 67 µg/mL) | - (No inhibition up to 67 µg/mL) | - (No inhibition up to 67 µg/mL) | - (No inhibition up to 67 µg/mL) | - (No inhibition up to 67 µg/mL) | - (No inhibition up to 67 µg/mL) | - (No inhibition up to 67 µg/mL) | - (No inhibition up to 67 µg/mL) | - (No inhibition up to 67 µg/mL) | - (No inhibition up to 67 µg/mL) | - (No inhibition up to 67 µg/mL) | - (No inhibition up to 67 µg/mL) | 
CN(C)[C@@H]1C(O)=C(C(N)=O)C(=O)[C@@]2(O)C(O)=C3C(=O)c4c(O)cccc4[C@@](C)(O)[C@H]3[C@H](O)[C@@H]12 [Oxytetracycline, reference compound] |  |  |  |  |  |  |  |  |  |  |  |  |  |  |  |  |  | MIC [5, 19]: 16.6 µg/mL (≈ 36.1 µM)
Ac-D-Trp-D-Leu-D-Ala [Compound 5] | - | - | < 0 | 0.5 ± 1.1 | < 0 | - (No inhibition up to 67 µg/mL) | - (No inhibition up to 67 µg/mL) | - (No inhibition up to 67 µg/mL) | - (No inhibition up to 67 µg/mL) | - (No inhibition up to 67 µg/mL) | - (No inhibition up to 67 µg/mL) | - (No inhibition up to 67 µg/mL) | - (No inhibition up to 67 µg/mL) | - (No inhibition up to 67 µg/mL) | - (No inhibition up to 67 µg/mL) | - (No inhibition up to 67 µg/mL) | - (No inhibition up to 67 µg/mL) | 
Ac-D-Trp-D-Ala^1-D-Ala^2-L-Phe [Compound 4] | - | - | 0.7 ± 2.0 | 0.1 ± 2.2 | < 0 | - (No inhibition up to 67 µg/mL) | - (No inhibition up to 67 µg/mL) | - (No inhibition up to 67 µg/mL) | - (No inhibition up to 67 µg/mL) | - (No inhibition up to 67 µg/mL) | - (No inhibition up to 67 µg/mL) | - (No inhibition up to 67 µg/mL) | - (No inhibition up to 67 µg/mL) | - (No inhibition up to 67 µg/mL) | - (No inhibition up to 67 µg/mL) | - (No inhibition up to 67 µg/mL) | - (No inhibition up to 67 µg/mL) | 
CNC(C)C1CCC(N)C(OC2C(N)CC(N)C(OC3OCC(C)(O)C(NC)C3O)C2O)O1 (stereo not drawn) [Gentamycin, reference compound] |  |  |  |  |  |  |  |  |  |  |  |  |  |  |  |  |  | MIC [9, 19]: 0.21 µg/mL (≈ 0.44 µM); MIC [11, 19]: 0.21 µg/mL (≈ 0.44 µM); MIC [12, 19]: 0.42 µg/mL (≈ 0.879 µM); MIC [15, 19]: 1.7 µg/mL (≈ 3.56 µM)
Ac-D-Trp-D-Leu-D-Ala-L-Phe [Compound 2] | - | - | < 0 | < 0 | < 0 | - (No inhibition up to 67 µg/mL) | - (No inhibition up to 67 µg/mL) | - (No inhibition up to 67 µg/mL) | - (No inhibition up to 67 µg/mL) | - (No inhibition up to 67 µg/mL) | - (No inhibition up to 67 µg/mL) | - (No inhibition up to 67 µg/mL) | - (No inhibition up to 67 µg/mL) | - (No inhibition up to 67 µg/mL) | - (No inhibition up to 67 µg/mL) | - (No inhibition up to 67 µg/mL) | - (No inhibition up to 67 µg/mL) | 
